Experimental data as given in ChEMBL document CHEMBL1201862, “PubChem BioAssay data set” (2004).
The source made the active and inactive calls.

Experiments:
[1] = target: T1, Trace amine-associated receptor 1 (Homo sapiens, UniProt Q96RJ0); experiment: Counterscreen for agonists of the human trace amine associated receptor 1 (hTAAR1): Fluorescence-based cell-based high throughput dose response assay to identify hTAAR1 agonist that also desensitize TAAR1 receptor response.; type: functional
T1 sequence (Q96RJ0 whole entry): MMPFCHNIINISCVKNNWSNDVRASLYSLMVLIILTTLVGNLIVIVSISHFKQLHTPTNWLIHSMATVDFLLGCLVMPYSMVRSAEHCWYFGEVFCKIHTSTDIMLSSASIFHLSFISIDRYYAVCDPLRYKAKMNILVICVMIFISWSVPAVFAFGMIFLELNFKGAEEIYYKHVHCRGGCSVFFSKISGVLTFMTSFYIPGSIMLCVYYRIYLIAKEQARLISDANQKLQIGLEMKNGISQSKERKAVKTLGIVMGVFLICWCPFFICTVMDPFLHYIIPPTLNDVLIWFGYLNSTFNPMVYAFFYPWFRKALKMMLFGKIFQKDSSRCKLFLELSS

[2] = cells; type: functional, cell-based
[3] = cells; type: functional, cell-based; remark: listed apart in the source
[4] = target: T1, Trace amine-associated receptor 1; experiment: Fluorescence-based cell-based high throughput dose response assay to identify agonists of the human trace amine associated receptor 1 (TAAR1).; type: functional
[5] = target: T2, Probable nicotinate-nucleotide adenylyltransferase (Staphylococcus aureus (strain N315), UniProt P65502); type: functional, Staphylococcus aureus subsp. aureus N315; conditions: read-out: IC50_Mean;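 for IC50 Mean: confirmatory dose-response retesting of NadD inhibitor hits first found in an ultra-high-throughput screen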
T2 sequence (P65502 whole entry): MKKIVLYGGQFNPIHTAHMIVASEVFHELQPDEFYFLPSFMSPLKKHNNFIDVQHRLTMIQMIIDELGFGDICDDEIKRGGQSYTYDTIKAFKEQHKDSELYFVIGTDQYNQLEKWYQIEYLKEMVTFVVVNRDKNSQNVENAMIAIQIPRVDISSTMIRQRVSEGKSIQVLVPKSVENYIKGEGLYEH

[6] = target: T2, Probable nicotinate-nucleotide adenylyltransferase; type: functional, Staphylococcus aureus subsp. aureus N315
[7] = target: T3, High affinity choline transporter 1 (Homo sapiens, UniProt Q9GZV3); experiment: CHT inhibitors, dose response, cell-based, 5-point CRC, membrane potential dye (AID 504840); type: functional
T3 sequence (Q9GZV3 whole entry): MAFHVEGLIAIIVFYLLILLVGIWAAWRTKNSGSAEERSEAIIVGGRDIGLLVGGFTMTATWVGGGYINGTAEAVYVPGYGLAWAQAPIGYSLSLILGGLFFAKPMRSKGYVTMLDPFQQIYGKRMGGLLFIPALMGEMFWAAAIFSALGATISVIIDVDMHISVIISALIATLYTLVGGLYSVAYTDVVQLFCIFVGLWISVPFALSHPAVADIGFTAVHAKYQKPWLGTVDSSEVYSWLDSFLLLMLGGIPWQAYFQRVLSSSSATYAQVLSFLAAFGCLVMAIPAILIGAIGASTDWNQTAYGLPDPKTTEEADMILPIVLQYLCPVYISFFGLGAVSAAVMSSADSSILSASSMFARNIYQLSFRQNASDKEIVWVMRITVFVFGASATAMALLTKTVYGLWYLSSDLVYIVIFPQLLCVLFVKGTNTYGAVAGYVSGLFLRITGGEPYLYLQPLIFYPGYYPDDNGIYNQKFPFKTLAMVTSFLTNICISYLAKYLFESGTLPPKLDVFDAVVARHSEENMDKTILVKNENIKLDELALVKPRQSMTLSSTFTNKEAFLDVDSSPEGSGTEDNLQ

[8] = target: T4, DNA repair protein RAD52 homolog (Homo sapiens, UniProt P43351); type: functional, biochemical
T4 sequence (P43351 whole entry): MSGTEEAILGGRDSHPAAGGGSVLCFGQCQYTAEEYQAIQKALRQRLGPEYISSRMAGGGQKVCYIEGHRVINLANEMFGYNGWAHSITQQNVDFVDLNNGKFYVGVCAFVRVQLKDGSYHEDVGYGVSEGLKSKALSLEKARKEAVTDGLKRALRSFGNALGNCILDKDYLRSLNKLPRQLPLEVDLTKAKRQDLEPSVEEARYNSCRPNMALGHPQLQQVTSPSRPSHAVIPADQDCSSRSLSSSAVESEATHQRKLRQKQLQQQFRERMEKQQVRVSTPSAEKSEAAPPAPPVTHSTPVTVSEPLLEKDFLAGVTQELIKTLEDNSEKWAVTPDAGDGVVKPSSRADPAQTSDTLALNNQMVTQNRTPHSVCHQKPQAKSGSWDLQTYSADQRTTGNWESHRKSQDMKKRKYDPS

[9] = target: T5, Caspase-6 (Homo sapiens, UniProt P55212); experiment: human caspase-6 inhibitors, dose response, biochemical, VEID-R110 fluorescence, cherry-pick (AID 720632)
T5 sequence (P55212 whole entry): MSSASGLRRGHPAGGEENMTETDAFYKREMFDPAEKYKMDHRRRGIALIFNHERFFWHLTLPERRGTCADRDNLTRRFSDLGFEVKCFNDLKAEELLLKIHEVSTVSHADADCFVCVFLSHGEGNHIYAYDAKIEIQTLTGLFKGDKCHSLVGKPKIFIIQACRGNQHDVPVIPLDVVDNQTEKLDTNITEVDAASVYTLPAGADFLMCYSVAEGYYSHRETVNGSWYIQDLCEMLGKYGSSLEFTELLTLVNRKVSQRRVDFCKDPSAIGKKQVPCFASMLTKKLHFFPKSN

[10] = cytotoxicity in OVCAR8 ovarian cancer cells, dose response, PAX8 project, cell-based, plate reader, dry powder samples (AID 743197); type: functional; conditions: OVCAR-8
[11] = IGROV1 ovarian cancer cell cytotoxicity, dose response, PAX8 inhibitor project, plate reader, dry powder samples (AID 743043); type: functional, cell-based; conditions: IGROV-1
[12] = NIH:OVCAR-3 ovarian cancer cell cytotoxicity, dose response, PAX8 inhibitor project, plate reader, dry powder samples (AID 743044); type: functional, cell-based
[13] = target: Paired box protein Pax-8 (Homo sapiens, UniProt Q06710); experiment: inhibitors of PAX8-driven TPO luciferase reporter, dose response, RMG-I cells, cherry-pick (AID 687027); type: functional, cell-based;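 note: luciferase reporter driven by Pax8 target thyroperoxidase promoter measured by SteadyGlo luminescence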
Sequence of Paired box protein Pax-8 (Q06710 whole entry): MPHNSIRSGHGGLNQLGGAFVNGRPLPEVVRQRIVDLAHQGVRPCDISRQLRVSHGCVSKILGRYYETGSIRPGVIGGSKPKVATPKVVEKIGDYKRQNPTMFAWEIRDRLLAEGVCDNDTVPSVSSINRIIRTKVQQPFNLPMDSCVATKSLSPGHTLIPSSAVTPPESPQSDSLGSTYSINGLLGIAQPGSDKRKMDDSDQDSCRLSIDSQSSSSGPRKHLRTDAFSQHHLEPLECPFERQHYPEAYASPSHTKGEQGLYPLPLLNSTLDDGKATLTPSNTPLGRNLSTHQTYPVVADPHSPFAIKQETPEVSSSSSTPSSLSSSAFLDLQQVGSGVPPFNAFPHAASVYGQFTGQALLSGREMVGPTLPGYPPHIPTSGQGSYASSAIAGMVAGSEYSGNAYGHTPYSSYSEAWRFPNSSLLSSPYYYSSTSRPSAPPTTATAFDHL

[14] = cytotoxicity toward NIH3T3 fibroblasts, dose response, counter-screen, cell-based, ATP luminescence, mouse fibroblasts (AID 2010); type: functional;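 note: cells exposed to compound for about 90 hours before reading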
[15] = test system: Streptococcus; experiment: Group A Streptococcus viability loss, dose response, counter-screen for streptokinase expression inhibitor project, luminescence, BacTiterGlo (AID 1915); type: functional, organism-based;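 note: potency for reduction of bacterial viability or growth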
[16] = inhibitors of intracellular T. cruzi replication, confirmation, NIH3T3 host cells, beta-gal luminescence (AID 2044); type: functional, cell-based;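 note: intracellular parasites grown in NIH/3T3 mouse fibroblasts as host cells; luminescent beta-galactosidase reporter signal from transgenic T. cruzi replicating inside host cells; inhibitors lower the luminescence signal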
[17] = microbe, parasite or virus in culture; type: functional; conditions: Mycobacterium tuberculosis
[18] = test system: Streptococcus sp. 'group A'; experiment: growth inhibition of control SK(-) GAS strain, dose response, counter-screen for streptokinase expression inhibitor project, luminescence, kanamycin, BacTiterGlo, confirmation (AID 1900); type: functional, organism-based
[19] = C. albicans growth with fluconazole, confirmation, fluorescence, retest (AID 2467); type: functional, cell-based
[20] = NIH-3T3 fibroblast cytotoxicity, dose response, cytotoxicity control, cell-based, fluorescence, Alamar Blue, secondary assay (AID 2327); type: functional;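 note: NIH-3T3 mouse fibroblasts cultured with fluconazole at 8 µg/mL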
[21] = target: T6, Streptokinase A (Streptococcus pyogenes serotype M1, UniProt P10520); experiment: S. pyogenes streptokinase expression inhibitors, potency, dose response, plasminogen activation absorbance, OD405 (AID 1914); type: functional, Streptococcus pyogenes M1 GAS;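 note: secreted streptokinase activity via plasminogen activation per viability signal from cell pellet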
T6 sequence (P10520 whole entry): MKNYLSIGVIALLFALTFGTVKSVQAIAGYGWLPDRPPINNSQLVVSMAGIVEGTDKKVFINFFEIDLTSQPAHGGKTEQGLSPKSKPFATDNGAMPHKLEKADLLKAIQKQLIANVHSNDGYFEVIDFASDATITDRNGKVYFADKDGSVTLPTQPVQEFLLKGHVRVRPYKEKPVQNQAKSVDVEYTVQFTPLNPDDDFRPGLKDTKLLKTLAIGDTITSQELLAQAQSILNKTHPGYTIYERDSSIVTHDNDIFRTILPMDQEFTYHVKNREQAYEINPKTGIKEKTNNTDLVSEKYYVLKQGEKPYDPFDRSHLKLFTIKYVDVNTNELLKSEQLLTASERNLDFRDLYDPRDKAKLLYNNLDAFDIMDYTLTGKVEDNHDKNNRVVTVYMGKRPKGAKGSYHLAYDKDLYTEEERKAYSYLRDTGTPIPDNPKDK

[22] = non-specific cell cytotoxicity, dose response, cytotoxicity control for PAX8 inhibitor project, plate reader, dry powder samples (AID 743021); type: functional, cell-based
[23] = inhibitors of PGC1a acetylation in cells, dose response, cell-based, cherry-picked samples (AID 720514); type: functional;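 note: potency may reflect raised or lowered acetylation signal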

Structure (SMILES): O=C(O)/C=C/C(=O)NCCc1cccc(Cl)c1
- IC50 [1]: 3.77 µM (active)
- IC50 [2]: > 29.9 µM (inactive)
- EC50 [3]: > 29.9 µM (inactive)
- EC50 [4]: 0.7 µM (active)

Structure (SMILES): Cc1ccc(Cn2nnc3c(O)nc(C4CCN(S(=O)(=O)c5ccc(S(=O)(=O)NC6CC6)cc5)CC4)nc32)cc1
- IC50 [5]: 54.4 µM (active)
- IC50 [6]: 23.7 µM (active)

Structure (SMILES): CCN1CCN(c2cc(C)c3cc(NC(=S)N4CCOCC4)ccc3n2)CC1
- IC50 [7]: 12.6 µM (active)
- AC50 [8]: 22 µM (active)

Structure (SMILES): COc1ccc(-c2nn(-c3ccccc3)cc2C(=O)Nc2cccc(C(=O)O)c2)cc1[N+](=O)[O-]
- AC50 [9]: 5.45 µM (active)

Structure (SMILES): Cc1ccc(-n2nc(C)c(/C=N/c3ccc(S(=O)(=O)Nc4nccs4)cc3)c2O)cc1C
- IC50 [5]: 17.4 µM (active)
- IC50 [6]: 4.08 µM (active)

Structure (SMILES): O=C(NCC1CCCO1)c1ccc(NC(=O)c2ccc(Br)cc2)cc1 (stereo not drawn)
- IC50 [1]: > 29.9 µM (inactive)
- IC50 [2]: > 29.9 µM (inactive)
- EC50 [3]: > 29.9 µM (inactive)
- EC50 [4]: 1.45 µM (active)

Structure (SMILES): C[C@H]1CCCCO[C@H](CN(C)C(=O)Nc2ccc(C(F)(F)F)cc2)[C@@H](C)CN([C@@H](C)CO)C(=O)c2cc(NC(=O)Nc3ccccc3)ccc2O1
- AC50 [10]: > 70 µM (inactive)
- AC50 [11]: 59.3 µM (active)
- AC50 [12]: 22.1 µM (active)
- AC50 [13]: 3.02 µM (active)

Structure (SMILES): O=C(CC1Nc2ccccc2NC1=O)NCCc1ccccc1 (stereo not drawn)
- IC50 [1]: 7.18 µM (active)
- IC50 [2]: > 29.9 µM (inactive)
- EC50 [3]: > 29.9 µM (inactive)
- EC50 [4]: 2.27 µM (active)

Structure (SMILES): O=C(O)c1ccccc1NS(=O)(=O)c1ccc(N/N=C/c2cccc(O)c2O)c([N+](=O)[O-])c1
- AC50 [9]: 6.45 µM (active)

Structure (SMILES): O=C(N/N=C\C=C\c1ccc([N+](=O)[O-])o1)c1cccs1
- AC50 [9]: 7.38 µM (active)
- EC50 [14]: 5.29 µM (active)
- EC50 [15]: 6.16 µM (active)
- EC50 [16]: 0.243 µM (active)
- CC50 [17]: 30.6 µM (active)
- EC50 [18]: 3.56 µM (active)
- EC50 [19]: 0.068 µM (active)
- EC50 [20]: > 160 µM (inconclusive)
- EC50 [21]: > 150 µM (not active)

Structure (SMILES): C[C@H](CO)N1C[C@H](C)[C@@H](CN(C)C(=O)Cc2ccccc2)OCCCC[C@H](C)Oc2ccc(NC(=O)Nc3ccc(C(F)(F)F)cc3)cc2C1=O
- AC50 [22]: 48.5 µM (active)
- AC50 [10]: > 70 µM (inactive)
- AC50 [13]: 4.34 µM (active)

Structure (SMILES): COc1ccc(CC2=NCCc3cc(OC)c(OC)cc32)cc1OC
- AC50 [8]: 15.2 µM (active)

Structure (SMILES): Cc1ccc(S(=O)(=O)Nc2ccc(Nc3nccn4c(-c5ccccc5Oc5ccccc5)cnc34)cc2)cc1
- IC50 [5]: 20.1 µM (active)
- IC50 [6]: 10.4 µM (active)

Structure (SMILES): CCCCOc1ccc(/C=C/C(=O)OCC(=O)c2c(N)n(C)c(=O)n(C)c2=O)cc1OCC
- AC50 [23]: 12.6 µM (active)

Structure (SMILES): Cc1cccc2sc(N(CCCN(C)C)C(=O)c3ccc(Cl)s3)nc12
- AC50 [8]: 24.9 µM (active)

Structure (SMILES): COc1ccc(-c2nc3ccccc3c(=O)o2)cc1OC
- AC50 [23]: 28.1 µM (active)

Structure (SMILES): CC(C)c1ccc(-c2nnn(CC(=O)N3CCCCC3)n2)cc1
- AC50 [23]: 24.3 µM (active)
